Values quoted from earlier work, collected in US9717692B2, “Effervescent formulations comprising dexketoprofen” (priority 2011, dated 2017).

Conditions: Sunshine et al., WO89/046558

In the case of C[C@H](C(=O)O)c1cccc(C(=O)c2ccccc2)c1 [Dexketoprofen, (+)-(S)-2-(3-Benzoylphenyl) propionic acid], the “effect compared with racemic ketoprofen of the same amount” value is listed as “quicker and stronger effect”.
